Experimental data reported in US10696731B2, “Oligopeptide-free cell culture media” (Baxalta GmbH, priority 2006, dated 2020).

Experiments:
GD8/6 cells [1] = assay: Small scale spinner flask culture of GD8/6 cells in BAV-medium: FVIII productivity and growth rate; details: added to BAV-medium, range 0-18 mg/L; spinner flasks 200 ml
Method: Cell counts from suspension cells or immobilized cells were determined either by counting with a CASY® cell counter as described by Scharfe et al., Biotechnologie in LaborPraxis 10: 1096-1103 (1988), or by citric acid extraction and fluorescent staining of the nuclei followed by counting with a NucleoCounter® (Chemometec, DK). The specific growth rate (p) is calculated from the increase of the cell densities(Xt) and/or the dilution rate (D) of the steady state of chemostat cultures of suspensions cells over a certain time interval (t): μ=D+ln(Xt/XO)/t
The activity of Factor VIII (FVIII) (cf. FIGS. 1 to 5) was measured by a chromogenic assay (Chromogenic, Sweden).
The cell specific productivity (qp) is defined as the specific amount of produced protein (U or μg) per number of cells per day.
Small scale experiments with GD8/6 cells in suspension culture were carried out in Techne spinner flasks at 200 ml working volume in batch refeed mode at 37° C., without pH and pO2 control.

GD8/6 cells [2] = assay: FVIII expression and growth of GD8/6 cells in 10 L chemostat culture with BAV-medium; format: cell-based
Method: The volumetric productivity (QP) is calculated from the amount of activity units yielded per liter reactor volume per day (U/L/d) in the production system.
Cell cultures of recombinant mammalian cells (e.g., CHO-cells stably expressing Factor VIII, such as GD8/6 cells) were grown in suspension in a chemostat culture in 10 l bioreactors. The culture conditions of 37° C., oxygen saturation 20%, and pH 7.0 to 7.1 were kept constant. The cultures were supplied with a constant feed of BAV-medium.

[3] = 2 mg/L plus additional supplementation with Fe (II) and Cu (II)

NCCC[C@H](N)C(=O)O [Ornithine]
ability to substitute putrescine (FVIII productivity and growth) (GD8/6 cells [1]): could partially substitute putrescine in a concentration-dependent manner

NCCCCN [Putrescine.2HCl]
volumetric productivity (GD8/6 cells [2]; 2 mg/L plus Fe (II) and Cu (II), after a further increase of the cell density): over 3000 U/L/D | cell specific productivity (GD8/6 cells [2]; [3]): over 1700 mU/10E06 cells/day | specific growth rate (GD8/6 cells [2]; [3]): approximately 0.60 d^−1 | volumetric productivity (GD8/6 cells [2]; [3]): over 2685 U/L/D | increase of volumetric FVIII-expression (GD8/6 cells [2]; addition of 2 mg/L after 11 days of continuous feed of BAV-medium, 10 L bioreactor): 800% | FVIII expression (volumetric productivity) (GD8/6 cells [2]; addition of 2 mg/L, BAV-medium without it averaged 271 U/L/D): 870 U/L/D

NCCO [ethanolamine, reference compound]
ability to substitute putrescine (FVIII productivity and growth) (GD8/6 cells [1]): could neither replace putrescine in any concentration investigated

NCCCNCCCCNCCCN [spermine]
ability to substitute putrescine (FVIII productivity and growth) (GD8/6 cells [1]): could also substitute putrescine in a concentration-dependent manner
